Assay results reported in US20250084063A1 (Incyte Corporation, priority 2023, published 2025).

Tests used:
Assay type in all cases: cell-based
MRGPRX2 [1] = molecular target: T1, MRGPRX2 (Homo sapiens, UniProt Q96LB1); experiment: MRGPRX2 IP1 HTRF assay; design: host or cells: CHO-K1; details: CHO-K1 cells stably expressing human MRGPRX2; IP1 accumulation, agonist Cortistatin 14 1 μM
T1 sequence (Q96LB1 1-330): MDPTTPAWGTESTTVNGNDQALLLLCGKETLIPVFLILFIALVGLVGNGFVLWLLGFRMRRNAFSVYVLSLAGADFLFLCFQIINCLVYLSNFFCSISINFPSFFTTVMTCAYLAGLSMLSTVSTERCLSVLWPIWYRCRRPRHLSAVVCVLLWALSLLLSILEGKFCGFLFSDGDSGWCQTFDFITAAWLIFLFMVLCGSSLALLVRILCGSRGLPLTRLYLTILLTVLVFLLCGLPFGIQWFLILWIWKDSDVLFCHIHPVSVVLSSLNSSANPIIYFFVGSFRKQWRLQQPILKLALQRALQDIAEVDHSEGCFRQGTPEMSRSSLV

MRGPRX2 [2] = molecular target: T1, MRGPRX2; experiment: MRGPRX2 β-Arrestin assay; design: host or cells: PathHunter CHO-K1; details: PathHunter CHO-K1 MRGPRX2 β-Arrestin cell line; agonist Cortistatin 14 0.25 μM
How it was run: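 PathHunter CHO-K1 cells expressing ProLink-tagged MRGPRX2 and enzyme-acceptor-tagged β-arrestin were preincubated with serially diluted compound 1 h at 37 °C, then stimulated with 0.25 μM cortistatin 14 (final) for 90 min. β-arrestin recruitment was read by luminescence; IC50 from 3- or 4-parameter Hill fits normalised to DMSO and reference antagonist controls.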

MRGPRX2 [3] = molecular target: T1, MRGPRX2; experiment: MRGPRX2 FLIPR calcium mobilization assay; design: host or cells: CHO-K1; details: CHO-K1 cells stably expressing human MRGPRX2; Ca2+ release, agonist Cortistatin-14 at EC80
How it was run: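 CHO-K1 cells stably expressing human MRGPRX2, loaded with Calcium 6 dye, pre-incubated 30 min at room temperature with test compound in HBSS/20 mM HEPES pH 7.4. Then challenged with Cortistatin-14 at EC80; baseline-adjusted peak fluorescence over 110 s fitted to a Hill equation for IC50.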

Measured: IC50

N#CN=C(N)N1CCC(CNc2cc(C(F)(F)F)nc3ccc(Cl)cc23)(c2ccccc2)CC1 [Example 9, 4-(((6-Chloro-2-(trifluoromethyl)quinolin-4-yl)amino)methyl)-N′-cyano-4-phenylpiperidine-1-carboximidamide]
0.0001 to 0.1 µM: all assays above

NS(=O)(=O)N1CC(CNc2cc(C(F)(F)F)nc3ccc(F)cc23)(n2cc(F)cn2)C1 [Example 10, 3-(4-Fluoro-1H-pyrazol-1-yl)-3-(((6-fluoro-2-(trifluoromethyl)quinolin-4-yl)amino)methyl)azetidine-1-sulfonamide]
0.0001 to 0.1 µM: all assays above

NS(=O)(=O)N1CCC(CNc2cc(C(F)(F)F)nc3ccc(F)cc23)(c2ccccc2)CC1 [Example 11, 4-(((6-Fluoro-2-(trifluoromethyl)quinolin-4-yl)amino)methyl)-4-phenylpiperidine-1-sulfonamide]
0.0001 to 0.1 µM: all assays above

NS(=O)(=O)N1CCC(CNc2cc(C(F)(F)F)nc3ccc(Cl)cc23)(c2ccccc2)CC1 [Example 12, 4-(((6-Chloro-2-(trifluoromethyl)quinolin-4-yl)amino)methyl)-4-phenylpiperidine-1-sulfonamide]
0.0001 to 0.1 µM: all assays above

CNC(=O)N1CCC(CNc2cc(C(F)(F)F)nc3ccc(Cl)cc23)(c2ccccc2)C1 (stereo not drawn) [Example 14, 3-(((6-Chloro-2-(trifluoromethyl)quinolin-4-yl)amino)methyl)-N-methyl-3-phenylpyrrolidine-1-carboxamide]
0.0001 to 0.1 µM: all assays above

FC(F)(F)c1cc(NCC2(c3ccccc3)CCOC2)c2cc(Cl)ccc2n1 (stereo not drawn) [Example 16, 6-Chloro-N-((3-phenyltetrahydrofuran-3-yl)methyl)-2-(trifluoromethyl)quinolin-4-amine]
0.0001 to 0.1 µM: all assays above

FC(F)(F)c1cc(NCC2(c3ccccc3)CCOCC2)c2cc(Cl)ccc2n1 [Example 17, 6-Chloro-N-((4-phenyltetrahydro-2H-pyran-4-yl)methyl)-2-(trifluoromethyl)quinolin-4-amine]
0.0001 to 0.1 µM: all assays above

NS(=O)(=O)N1CC(CNc2cc(C(F)(F)F)nc3ccc(Cl)cc23)(n2ccc(F)n2)C1 [Example 18, 3-(((6-Chloro-2-(trifluoromethyl)quinolin-4-yl)amino)methyl)-3-(3-fluoro-1H-pyrazol-1-yl)azetidine-1-sulfonamide]
0.0001 to 0.1 µM: all assays above

O=C(NC1CC(F)(F)C1)N1CC(CNc2cc(C(F)(F)F)nc3ccc(Cl)cc23)(c2ccc(F)cn2)C1 [Example 19, 3-(((6-Chloro-2-(trifluoromethyl)quinolin-4-yl)amino)methyl)-N-(3,3-difluorocyclobutyl)-3-(5-fluoropyridin-2-yl)azetidine-1-carboxamide]
0.0001 to 0.1 µM: all assays above

NC(=O)N1CCC(CNc2cc(C(F)(F)F)nc3ccc(Cl)cc23)(c2ccc(F)cn2)C1 (stereo not drawn) [Example 20, 3-(((6-Chloro-2-(trifluoromethyl)quinolin-4-yl)amino)methyl)-3-(5-fluoropyridin-2-yl) pyrrolidine-1-carboxamide]
0.0001 to 0.1 µM: all assays above

CC(C)NC(=O)N1CC(CNc2cc(C(F)(F)F)nc3ccc(Cl)cc23)(n2cc(F)cn2)C1 [Example 21, 3-(((6-Chloro-2-(trifluoromethyl)quinolin-4-yl)amino)methyl)-3-(4-fluoro-1H-pyrazol-1-yl)-N-isopropylazetidine-1-carboxamide]
0.0001 to 0.1 µM: all assays above

O=C(NC1CC(F)(F)C1)N1CC(CNc2cc(C(F)(F)F)nc3ccc(Cl)cc23)(n2cc(F)cn2)C1 [Example 22, 3-(((6-Chloro-2-(trifluoromethyl)quinolin-4-yl)amino)methyl)-N-(3,3-difluorocyclobutyl)-3-(4-fluoro-1H-pyrazol-1-yl)azetidine-1-carboxamide]
0.0001 to 0.1 µM: all assays above

NS(=O)(=O)N1CC(CNc2cc(C(F)(F)F)nc3ccc(F)cc23)(c2ccc(F)cc2)C1 [Example 23, 3-(((6-Fluoro-2-(trifluoromethyl)quinolin-4-yl)amino)methyl)-3-(4-fluorophenyl)azetidine-1-sulfonamide]
0.0001 to 0.1 µM: all assays above

NS(=O)(=O)N1CC(CNc2cc(C(F)(F)F)nc3ccc(Cl)cc23)(n2cc(F)cn2)C1 [Example 24, 3-(((6-Chloro-2-(trifluoromethyl)quinolin-4-yl)amino)methyl)-3-(4-fluoro-1H-pyrazol-1-yl)azetidine-1-sulfonamide]
0.0001 to 0.1 µM: all assays above

NC(=O)N1CC(CNc2cc(C(F)(F)F)nc3ccc(F)cc23)(c2ccc(F)cc2)C1 [Example 25, 3-(((6-Fluoro-2-(trifluoromethyl)quinolin-4-yl)amino)methyl)-3-(4-fluorophenyl)azetidine-1-carboxamide]
0.0001 to 0.1 µM: all assays above

[2H]C([2H])([2H])NC(=O)N1CC(CNc2cc(C(F)(F)F)nc3ccc(Cl)cc23)(n2cc(F)cn2)C1 [Example 26, 3-(((6-Chloro-2-(trifluoromethyl)quinolin-4-yl)amino)methyl)-3-(4-fluoro-1H-pyrazol-1-yl)-N-(methyl-d3)azetidine-1-carboxamide]
0.0001 to 0.1 µM: all assays above

O=C(NC1CC1)N1CC(CNc2cc(C(F)(F)F)nc3ccc(Cl)cc23)(n2cc(F)cn2)C1 [Example 27, 3-(((6-Chloro-2-(trifluoromethyl)quinolin-4-yl)amino)methyl)-N-cyclopropyl-3-(4-fluoro-1H-pyrazol-1-yl)azetidine-1-carboxamide]
0.0001 to 0.1 µM: all assays above

NC(=O)N1CC(CNc2cc(C(F)(F)F)nc3ccc(Cl)cc23)(n2cc(F)cn2)C1 [Example 28, 3-(((6-Chloro-2-(trifluoromethyl)quinolin-4-yl)amino)methyl)-3-(4-fluoro-1H-pyrazol-1-yl)azetidine-1-carboxamide]
0.0001 to 0.1 µM: all assays above

NS(=O)(=O)N1CC(CNc2cc(C(F)(F)F)nc3ccc(Cl)cc23)(c2ccc(Cl)cn2)C1 [Example 29, 3-(((6-Chloro-2-(trifluoromethyl)quinolin-4-yl)amino)methyl)-3-(5-chloropyridin-2-yl)azetidine-1-sulfonamide]
0.0001 to 0.1 µM: all assays above

[2H]C([2H])([2H])NC(=O)N1CC(CNc2cc(C(F)(F)F)nc3ccc(Cl)cc23)(n2cc(Cl)cn2)C1 [Example 30, 3-(4-Chloro-1H-pyrazol-1-yl)-3-(((6-chloro-2-(trifluoromethyl)quinolin-4-yl)amino)methyl)-N-(methyl-d3)azetidine-1-carboxamide]
0.0001 to 0.1 µM: all assays above

NS(=O)(=O)N1CC(CNc2cc(C(F)(F)F)nc3ccc(Cl)cc23)(c2cccc(F)c2)C1 [Example 31, 3-(((6-Chloro-2-(trifluoromethyl)quinolin-4-yl)amino)methyl)-3-(3-fluorophenyl)azetidine-1-sulfonamide]
0.0001 to 0.1 µM: all assays above

NS(=O)(=O)N1CC(CNc2cc(C(F)(F)F)nc3ccc(Cl)cc23)(c2ccc(F)cc2)C1 [Example 32, 3-(((6-Chloro-2-(trifluoromethyl)quinolin-4-yl)amino)methyl)-3-(4-fluorophenyl)azetidine-1-sulfonamide]
0.0001 to 0.1 µM: all assays above

NC(=O)N1CC(CNc2cc(C(F)(F)F)nc3ccc(Cl)cc23)(n2cc(Cl)cn2)C1 [Example 37, 3-(4-Chloro-1H-pyrazol-1-yl)-3-(((6-chloro-2-(trifluoromethyl)quinolin-4-yl)amino)methyl)azetidine-1-carboxamide]
0.0001 to 0.1 µM: all assays above

NS(=O)(=O)N1CC(CNc2cc(C(F)(F)F)nc3ccc(Cl)cc23)(c2ccccc2)C1 [Example 38, 3-(((6-Chloro-2-(trifluoromethyl)quinolin-4-yl)amino)methyl)-3-phenylazetidine-1-sulfonamide]
0.0001 to 0.1 µM: all assays above

NC(=O)N1CC(CNc2cc(C(F)(F)F)nc3ccc(Cl)cc23)(n2cc(Br)cn2)C1 [Example 41, 3-(4-Bromo-1H-pyrazol-1-yl)-3-(((6-chloro-2-(trifluoromethyl)quinolin-4-yl)amino)methyl)azetidine-1-carboxamide]
0.0001 to 0.1 µM: all assays above
